Patent US20240150396A1 (The Texas A&M University System, priority 2021, published 2024)
Several values for one entry are separate records, joined by “and”; a condition that tells them apart may be missing. Equal values may be shown once. Read-outs that look alike come from different tables or passages of the source. Non-standard residues stand in square brackets, D forms with d. Residues, ends and D or L forms follow the SMILES beside them. *: point of attachment. hPhe = N[C@@H](CCc1ccccc1)C(=O)O; 4Pal = N[CH](Cc1ccncc1)C(=O)O; AMC = Cc1cc(=O)oc2cc(N*)ccc12; Cbz = O=C(OCc1ccccc1)*

Tests used:
cruzain [1] = target: T1, cruzain (Trypanosoma cruzi, UniProt P25779); assay: biochemical; settings: pH 7.5; for kinact/KI: irreversible inactivation
T1 sequence (P25779 123-467 limits assumed): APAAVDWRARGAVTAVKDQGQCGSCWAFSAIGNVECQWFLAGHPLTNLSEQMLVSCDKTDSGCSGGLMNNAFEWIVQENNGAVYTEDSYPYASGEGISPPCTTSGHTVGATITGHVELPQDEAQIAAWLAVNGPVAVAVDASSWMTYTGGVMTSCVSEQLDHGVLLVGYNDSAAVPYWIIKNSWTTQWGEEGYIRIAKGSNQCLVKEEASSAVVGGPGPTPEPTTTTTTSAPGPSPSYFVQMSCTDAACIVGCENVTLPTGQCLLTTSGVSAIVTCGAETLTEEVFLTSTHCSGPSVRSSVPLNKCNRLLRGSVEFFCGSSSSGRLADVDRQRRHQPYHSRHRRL
Method: All enzyme assays were performed at 25° C. Initial rates of the peptidolytic reaction catalyzed by cruzain were measured by monitoring the fluorescence generated by cleavage of the dipeptide-AMC bond. Assays were conducted in 96-well plates (Greiner; flat-bottom, clear black plates) in a total volume of 250 μL, containing either 50 mM MES (pH 7.5), 50 mM TAPSO, 100 mM DEA, 1 mM CHAPS, 1 mM Na2EDTA, 5 mM DTT, and 10% DMSO (v/v) or 50 mM sodium acetate (pH 5.5), 50 mM MES, 100 mM TEA, 1 mM CHAPS, 1 mM Na2EDTA, 5 mM DTT, and 10% DMSO (v/v). Substrates were dissolved in 100% DMSO and were then diluted 10-fold such that when added to reaction mixtures, final DMSO concentration was 10% (v/v). […] Fluorescence was measured on either a SpectraMax M5 (Molecular Devices) or a Synergy HTX (BioTek, Winooski, VT) microplate reader (λex=360 nm, λem=460 nm). Initial rates were determined from continuous kinetic time courses and calculated from the earliest time points, typically at less than 10 min.
(2) Enzyme and compound were preincubated over extended periods of time, and then aliquots were removed and diluted 50-fold to 100-fold into reaction mixtures containing 10 μM Cbz-Phe-Arg-AMC, followed by the assessment of the resulting time courses.
Data for time-dependent inhibition were fitted by several methods.
Values of kobs versus [inhibitor] were then replotted and fitted to eq 4 for which k3 and k4 represent the respective rates of formation and dissolution of the EI* complex as depicted in FIG. 9.
In addition, time-course data were fitted globally by two methods. First, expressions for vs, vi, and kobs were substituted into eq 3 to generate eq 6, which was used to fit time-course data at all concentrations of inhibitors simultaneously. Second, time-course data were fitted using KinTek Explorer as either a single-binding step model with the two kinetic parameters k3/Ki and k4 or a two-step binding mechanism as shown in FIG. 9 from which rate constants k1-k4 are determined (Supporting Information).
Enzyme Assays. The preparation of cruzain and 3CL^pro were described in previous publications.^8, 34 The evaluation of inhibitors was modified from our lab protocol and described briefly as follows.^35 All enzyme assays were conducted in 96-well, clear bottom, black plates at 25° C., and fluorescence emanating from product formation was measured using either a SpectraMax M5 (Molecular Devices) or a Synergy HTX (Biotek) microplate reader, with excitation at λex=360 nm and emission at λem=460 nm. […] Reactions were started with addition of enzyme (typically, to a final concentration of 0.2 nM for cruzain or 40 nM for 3CL^pro), and the time courses were recorded for 0.5-1 h.
Kinetic Data Analysis. All time-course data were fitted to eq. 1, wherein P is the fluorescence generated by formation of AMC or liberated ACC, C is the background constant, vi and vs are respectively initial-state and steady-state reaction rates, t is time, and kobs is the observed rate of conversion of the initial inhibited rate to the final inhibited rate.^46
Overall inhibition constants (Ki* values) were obtained by fitting vs/v0 to eq. 4, wherein vs and v0 are steady-state reaction rates in the presence and absence of inhibitor respectively, [S] and [I] represent the fixed concentration of substrate and variable inhibitor, Km is the Michaelis constant of the substrate.

cruzain [2] = target: T1, cruzain; assay: Kinetic parameters of peptide substrates for cruzain; assay type: biochemical; settings: for Km / kcat / kcat/Km: pH 7.5, 25° C., 10% DMSO; for kcat rel: relative to Cbz-Phe-Arg-AMC
Method: All enzyme assays were performed at 25° C. Initial rates of the peptidolytic reaction catalyzed by cruzain were measured by monitoring the fluorescence generated by cleavage of the dipeptide-AMC bond. Assays were conducted in 96-well plates (Greiner; flat-bottom, clear black plates) in a total volume of 250 μL, containing either 50 mM MES (pH 7.5), 50 mM TAPSO, 100 mM DEA, 1 mM CHAPS, 1 mM Na2EDTA, 5 mM DTT, and 10% DMSO (v/v) or 50 mM sodium acetate (pH 5.5), 50 mM MES, 100 mM TEA, 1 mM CHAPS, 1 mM Na2EDTA, 5 mM DTT, and 10% DMSO (v/v). Substrates were dissolved in 100% DMSO and were then diluted 10-fold such that when added to reaction mixtures, final DMSO concentration was 10% (v/v). Reactions were initiated with the addition of 1-10 μL of cruzain (final concentrations: 0.1-3.0 nM (preincubation studies)). Fluorescence was measured on either a SpectraMax M5 (Molecular Devices) or a Synergy HTX (BioTek, Winooski, VT) microplate reader (λex=360 nm, λem=460 nm). Initial rates were determined from continuous kinetic time courses and calculated from the earliest time points, typically at less than 10 min.
Initial velocity data for cruzain-catalyzed reactions of fluorogenic peptide substrates were determined by fitting to eq 1 using GraphPad Prism 6.0 or SigmaPlot 12.0. For eq 1, kcat is the turnover number, [E]t is the concentration of active sites of cruzain, and Ka is the Michaelis constant for the substrate A. Cruzain concentrations were determined by spectrophotometric analysis of purified sample solutions as described.^44

[3] = apparent initial inhibition constant, 25° C., read-out: Ki
[4] = apparent tight-binding inhibition constant, 25° C., read-out: Ki*
[5] = obtained >10 minutes following initiation of reaction by addition of enzyme, read-out: Ki* Cruzain

Row | Compound | Ki (cruzain [1]; [3]) [µM] | Ki (cruzain [1]; [4]) [µM] | Km (cruzain [2]) [µM] | kcat (cruzain [2]) | kcat/Km (cruzain [2]) | kcat rel (cruzain [2]) | other results
1 | C[n+]1ccc(/C=C/[C@H](Cc2ccccc2)NC(=O)[C@H](Cc2ccccc2)NC(=O)OCc2ccccc2)cc1 [Compound 22, 4-((S,E)-3-((S)-2-(((Benzyloxy)carbonyl)amino)-3-phenylpropanamido)-4-phenylbut-1-en-1-yl)-1-methylpyridin-1-ium Iodide] | 92 ± 5 | 4 ± 0.1 | – | – | – | – | –
2 | NC(=O)/C=C/[C@H](Cc1ccccc1)NC(=O)[C@H](Cc1ccccc1)NC(=O)OCc1ccccc1 [Compound 2, Benzyl ((S)-1-(((S,E)-5-Amino-5-oxo-1-phenylpent-3-en-2-yl)-amino)-1-oxo-3-phenylpropan-2-yl)carbamate] | 37 ± 2 | – | – | – | – | – | kinact/KI (cruzain [1]; 25° C.): 22 M⁻¹ s⁻¹ and 21.7 ± 0.8 M⁻¹ s⁻¹
3 | C[C@@H](/C=C/c1ccccn1)NC(=O)[C@H](Cc1ccccc1)NC(=O)OCc1ccccc1 [Compound 19, Benzyl ((S)-1-Oxo-3-phenyl-1-(((S,E)-4-(pyridin-2-yl)but-3-en-2-yl)amino)propan-2-yl)carbamate] | – | 4.8 ± 0.2 | – | – | – | – | –
4 | Cc1cc(=O)oc2cc(NC(=O)[C@H](Cc3ccccc3)NC(=O)[C@H](Cc3ccccc3)NC(=O)N3CCN(C)CC3)ccc12 [Compound S11, NMePip-Phe-Phe-AMC] | – | – | 14 ± 4 | 2.8 ± 0.06 s⁻¹ | 200000 ± 40000 M⁻¹ s⁻¹ | 0.29 | –
5 | O=C(N[C@@H](Cc1ccccc1)C(=O)N[C@H](CO)Cc1ccccc1O)OCc1ccccc1 [Compound 51] | – | – | – | – | – | – | Ki (cruzain [1]; [5]): > 10 µM
6 | Cc1cc(=O)oc2cc(NC(=O)C(CCc3ccccc3)NC(=O)C(Cc3ccccc3)NC(=O)N3CCN(C)CC3)ccc12 (stereo not drawn) [Compound S7, NMePip-Phe-hPhe-AMC] | – | – | 3.1 ± 0.3 | 4.0 ± 0.1 s⁻¹ | 1.3e+06 M⁻¹ s⁻¹ and 1.3e+06 ± 100000 M⁻¹ s⁻¹ | 0.42 | –
7 | CC(C)C[C@H](NC(=O)OCc1ccccc1)C(=O)N[C@H](/C=C/c1ccccn1)CCc1ccccc1 [Compound 18, Benzyl ((S)-4-Methyl-1-oxo-1-(((S,E)-5-phenyl-1-(pyridin-2-yl)-pent-1-en-3-yl)amino)pentan-2-yl)carbamate] | 7.8 ± 0.6 | 1.42 | – | – | – | – | –
8 | Cc1cc(=O)oc2cc(NC(=O)[C@H](Cc3ccccc3)NC(=O)[C@H](Cc3ccccc3)NC(=O)OCc3ccccc3)ccc12 [Compound S9, Cbz-Phe-Phe-AMC] (Cbz-Phe-Phe-{AMC}) | – | – | 0.34 | 0.26 ± 0.01 s⁻¹ | 800000 ± 200000 M⁻¹ s⁻¹ | 0.03 | –
9 | Cc1cc(=O)oc2cc(NC(=O)[C@H](CCc3ccccc3)NC(=O)[C@H](Cc3ccccc3)NC(=O)OCc3ccccc3)ccc12 [Compound S2, Cbz-Phe-hPhe-AMC] (Cbz-Phe-[hPhe]-{AMC}) | – | – | 0.26 ± 0.06 | 2.0 ± 0.2 s⁻¹ | 8e+06 M⁻¹ s⁻¹ and 8e+06 ± 2e+06 M⁻¹ s⁻¹ | 0.21 | –
10 | N—((S)-1-(((2S,3S)-3-hydroxy-1,2,3,4-tetrahydronaphthalen-2-yl)amino)-1-oxo-3-phenylpropan-2-yl)-4-methylpiperazine-1-carboxamide and N—((S)-1-(((2R,3R)-3-hydroxy-1,2,3,4-tetrahydronaphthalen-2-yl)amino)-1-oxo-3-phenylpropan-2-yl)-4-methylpiperazine-1-carboxamide [Compound 50] | – | > 100 | – | – | – | – | Ki (cruzain [1]; [5]): > 100 µM
11 | CN1CCN(C(=O)N[C@@H](Cc2ccccc2)C(=O)N[C@H](/C=C/C(N)=O)CCc2ccccc2)CC1 [Compound 4, N—((S)-1-(((S,E)-6-Amino-6-oxo-1-phenylhex-4-en-3-yl)amino)-1-oxo-3-phenylpropan-2-yl)-4-methylpiperazine-1-carboxamide] | 3.4 ± 0.4 | – | – | – | – | – | kinact/KI (cruzain [1]; 25° C.): 1900 ± 200 M⁻¹ s⁻¹
12 | CN1CCN(C(=O)N[C@@H](Cc2ccccc2)C(=O)N[C@H](/C=C/c2ccccn2)CCc2ccccc2)CC1 [Compound 14, 4-Methyl-N—((S)-1-oxo-3-phenyl-1-(((S,E)-5-phenyl-1-(pyridin-2-yl)pent-1-en-3-yl)amino)propan-2-yl)piperazine-1-carboxamide] | – | 3.4 | – | – | – | – | –
13 | Cc1cc(=O)oc2cc(NC(=O)[C@H](CCc3ccccc3)NC(=O)[C@H](Cc3ccncc3)NC(=O)OCc3ccccc3)ccc12 [Compound S8, Cbz-(4-Pyr)Ala-hPhe-AMC] (Cbz-[4Pal]-[hPhe]-{AMC}) | – | – | 4.6 | 5.3 s⁻¹ and 5.3 ± 0.2 s⁻¹ | 1.1e+06 ± 100000 M⁻¹ s⁻¹ | 0.55 | –
14 | O=C(N[C@@H](Cc1ccccc1)C(=O)N[C@H](/C=C/S(=O)(=O)c1ccccc1)Cc1ccccc1)OCc1ccccc1 [Compound 1] | – | – | – | – | – | – | Ki (cruzain [1]; [5]): 0.0036 µM
15 | NC(=O)/C=C/[C@H](CCc1ccccc1)NC(=O)[C@H](Cc1ccccc1)NC(=O)OCc1ccccc1 [Compound 3, Benzyl ((S)-1-(((S,E)-6-Amino-6-oxo-1-phenylhex-4-en-3-yl)-amino)-1-oxo-3-phenylpropan-2-yl)carbamate] | 3 ± 1 | – | – | – | – | – | kinact/KI (cruzain [1]; 25° C.): 1700 ± 500 M⁻¹ s⁻¹
16 | O=C(N[C@@H](Cc1ccccc1)C(=O)N[C@H](/C=C/c1ccncc1)Cc1ccccc1)OCc1ccccc1 [Compound 21, Benzyl ((S)-1-Oxo-3-phenyl-1-(((S,E)-1-phenyl-4-(pyridin-4-yl)-but-3-en-2-yl)amino)propan-2-yl)carbamate] | – | 5.5 ± 0.2 | – | – | – | – | –
17 | Cc1cc(=O)oc2cc(NC(=O)C(Cc3ccncc3)NC(=O)C(Cc3ccccc3)NC(=O)OCc3ccccc3)ccc12 (stereo not drawn) [Compound S5, Cbz-Phe-(4-Pyr)Ala-AMC] (Cbz-Phe-[4Pal]-{AMC}; configuration not given here) | – | – | 3.7 | 7.5 ± 0.5 s⁻¹ | 2e+06 ± 400000 M⁻¹ s⁻¹ | 0.76 | –
18 | Cc1cc(=O)oc2cc(NC(=O)C(CCc3ccccc3)NC(=O)C(CCCN=C(N)N)NC(=O)OCc3ccccc3)ccc12 (stereo not drawn) [Compound S10, Cbz-Arg-hPhe-AMC] | – | – | 6.8 | 4.9 s⁻¹ and 4.9 ± 0.1 s⁻¹ | 700000 ± 40000 M⁻¹ s⁻¹ | 0.51 | –
19 | O=C(N[C@@H](Cc1ccccc1)C(=O)N[C@H](/C=C/c1ccncn1)Cc1ccccc1)OCc1ccccc1 [Compound 23, Benzyl ((S)-1-Oxo-3-phenyl-1-(((S,E)-1-phenyl-4-(pyrimidin-4-yl)-but-3-en-2-yl)amino)propan-2-yl)carbamate] | 10.8 ± 1.4 | 1.14 ± 0.07 | – | – | – | – | –
20 | Cc1cc(=O)oc2cc(NC(=O)[C@H](CCCN=C(N)N)NC(=O)[C@H](CC(C)C)NC(=O)OCc3ccccc3)ccc12 [Compound S4, Cbz-Leu-Arg-AMC] | – | – | 2.2 ± 0.3 | 8.4 ± 0.4 s⁻¹ | 3.8e+06 ± 700000 M⁻¹ s⁻¹ | 0.88 | –
